Common to all, as to format: ADME
One data set concerns the target T1, Cytochrome P450 2A6 (Homo sapiens, UniProt P11509).
T1 sequence (P11509 whole entry): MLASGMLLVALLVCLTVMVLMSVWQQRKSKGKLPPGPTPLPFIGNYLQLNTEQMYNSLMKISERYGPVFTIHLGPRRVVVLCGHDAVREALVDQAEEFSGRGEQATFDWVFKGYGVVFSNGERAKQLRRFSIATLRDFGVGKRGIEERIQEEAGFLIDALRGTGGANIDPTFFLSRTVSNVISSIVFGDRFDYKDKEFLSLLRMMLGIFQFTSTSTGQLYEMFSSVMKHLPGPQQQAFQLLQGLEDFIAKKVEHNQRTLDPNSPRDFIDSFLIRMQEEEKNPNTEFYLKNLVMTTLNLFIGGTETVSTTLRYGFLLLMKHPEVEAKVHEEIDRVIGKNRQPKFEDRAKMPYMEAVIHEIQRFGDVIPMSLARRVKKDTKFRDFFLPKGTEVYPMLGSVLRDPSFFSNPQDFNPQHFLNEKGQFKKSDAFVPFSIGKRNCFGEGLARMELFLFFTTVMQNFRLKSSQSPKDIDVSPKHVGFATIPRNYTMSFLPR
Put plainly: (§1) Mechanism based inhibition of human cytochrome P450 2A6 measured by coumarin 7-hydroxylation.

A further data set has as its target T2, CYP2A6 (Homo sapiens, UniProt P11509).
T2 sequence (P11509 whole entry): T1 sequence (P11509 whole entry)
The data set is described as §1.

Data set [1] addresses T3, Cytochrome P450 3A4 (Homo sapiens, UniProt P08684). Put plainly: (§2) Mechanism based inhibition of human cytochrome P450 3A4 measured by testosterone 6-beta hydroxylation.
For data set [2], the target named is T4, CYP3A4 (Homo sapiens, UniProt P08684). The data set is described as §2. The note with it: probe testosterone (6-beta hydroxylation).
T4 sequence (P08684 whole entry): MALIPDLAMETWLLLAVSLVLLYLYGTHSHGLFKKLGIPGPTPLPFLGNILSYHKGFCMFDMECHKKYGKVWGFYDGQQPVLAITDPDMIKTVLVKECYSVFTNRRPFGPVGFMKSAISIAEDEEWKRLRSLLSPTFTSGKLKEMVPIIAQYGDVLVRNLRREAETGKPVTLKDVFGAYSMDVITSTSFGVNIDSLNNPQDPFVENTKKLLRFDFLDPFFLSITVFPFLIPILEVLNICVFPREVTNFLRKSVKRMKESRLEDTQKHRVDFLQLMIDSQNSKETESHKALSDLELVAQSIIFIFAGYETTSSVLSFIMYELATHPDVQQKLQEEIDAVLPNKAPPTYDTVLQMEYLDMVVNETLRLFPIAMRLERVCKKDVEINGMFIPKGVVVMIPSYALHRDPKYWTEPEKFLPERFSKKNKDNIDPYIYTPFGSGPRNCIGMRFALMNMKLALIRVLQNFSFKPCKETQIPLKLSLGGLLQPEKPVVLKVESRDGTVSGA
The target of the next data set is T5, Cytochrome P450 1A2 (Homo sapiens, UniProt P05177).
T5 sequence (P05177 whole entry): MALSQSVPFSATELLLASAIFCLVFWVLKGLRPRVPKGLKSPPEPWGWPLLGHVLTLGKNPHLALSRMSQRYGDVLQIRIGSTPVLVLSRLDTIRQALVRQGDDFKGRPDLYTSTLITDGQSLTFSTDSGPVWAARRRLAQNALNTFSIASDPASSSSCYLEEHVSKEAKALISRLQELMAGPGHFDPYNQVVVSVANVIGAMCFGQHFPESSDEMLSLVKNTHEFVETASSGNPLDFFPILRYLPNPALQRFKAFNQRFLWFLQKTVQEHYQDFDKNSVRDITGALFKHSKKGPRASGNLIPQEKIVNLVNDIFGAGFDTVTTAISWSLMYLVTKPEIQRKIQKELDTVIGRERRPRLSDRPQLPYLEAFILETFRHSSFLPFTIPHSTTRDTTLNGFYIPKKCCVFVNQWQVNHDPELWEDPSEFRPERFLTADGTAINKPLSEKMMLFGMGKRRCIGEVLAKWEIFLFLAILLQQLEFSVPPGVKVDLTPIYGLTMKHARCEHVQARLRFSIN
Put plainly: Mechanism based inhibition of human cytochrome P450 1A2 measured by 7-ethoxyresorufin O-deethylation (EROD).

Data set [3] has as its target T6, Cytochrome P450 1A1 (Homo sapiens, UniProt P04798).
T6 sequence (P04798 whole entry): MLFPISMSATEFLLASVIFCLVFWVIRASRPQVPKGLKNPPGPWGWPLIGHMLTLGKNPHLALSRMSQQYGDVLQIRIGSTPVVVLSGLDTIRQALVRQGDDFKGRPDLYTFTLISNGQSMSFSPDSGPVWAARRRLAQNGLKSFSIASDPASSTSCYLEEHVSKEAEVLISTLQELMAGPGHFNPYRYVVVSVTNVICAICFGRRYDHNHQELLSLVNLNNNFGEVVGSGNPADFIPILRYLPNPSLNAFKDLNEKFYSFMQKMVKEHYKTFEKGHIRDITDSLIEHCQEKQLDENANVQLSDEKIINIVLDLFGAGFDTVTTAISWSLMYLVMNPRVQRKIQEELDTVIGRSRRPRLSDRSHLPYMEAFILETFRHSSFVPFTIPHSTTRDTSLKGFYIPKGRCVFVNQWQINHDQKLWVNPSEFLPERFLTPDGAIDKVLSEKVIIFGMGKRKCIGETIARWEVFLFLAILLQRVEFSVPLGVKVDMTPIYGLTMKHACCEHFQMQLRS
Kind of data set: Mechanism based inhibition of human cytochrome P450 1A1 measured by 7-ethoxyresorufin O-deethylation (EROD).

The target of a further data set is T7, CYP1A1 (Rattus norvegicus, UniProt P00185).
T7 sequence (P00185 whole entry): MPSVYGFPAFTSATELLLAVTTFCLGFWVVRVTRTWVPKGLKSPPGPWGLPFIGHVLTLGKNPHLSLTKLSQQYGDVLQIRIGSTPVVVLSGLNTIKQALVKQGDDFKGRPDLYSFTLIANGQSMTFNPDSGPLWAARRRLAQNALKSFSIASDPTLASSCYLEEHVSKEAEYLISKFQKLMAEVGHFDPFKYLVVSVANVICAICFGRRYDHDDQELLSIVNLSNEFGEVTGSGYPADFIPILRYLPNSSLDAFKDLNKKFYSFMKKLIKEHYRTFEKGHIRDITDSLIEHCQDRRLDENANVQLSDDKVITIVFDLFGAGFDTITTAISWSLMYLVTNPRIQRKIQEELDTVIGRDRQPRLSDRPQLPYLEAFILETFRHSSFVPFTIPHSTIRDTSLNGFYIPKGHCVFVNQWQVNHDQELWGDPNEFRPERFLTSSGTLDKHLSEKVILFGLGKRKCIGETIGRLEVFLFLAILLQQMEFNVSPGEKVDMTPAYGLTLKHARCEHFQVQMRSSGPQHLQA
Kind of data set: (§3) Mechanism based inhibition of rat cytochrome P450 CYP1A1 measured by 7-ethoxyresorufin O-deethylation (EROD). The note with it: rat, probe 7-ethoxyresorufin (O-deethylation, EROD).

For data set [4], the target named is T8, Cytochrome P450 1A1 (Rattus norvegicus, UniProt P00185).
T8 sequence (P00185 whole entry): T7 sequence (P00185 whole entry)
The data set is described as §3.

Data set [5] has as its target T3, Cytochrome P450 3A4. Put plainly: (§4) Mechanism based inhibition of human cytochrome P450 3A4 measured by (14C)formaldehyde production from (N-methyl-14C)-erythromycin.
For data set [6], the target named is T4, CYP3A4. The description is as §4. The note with it: human, probe (N-methyl-14C)-erythromycin.
The target in a further data set is Cytochrome P450 2E1 (Homo sapiens, UniProt P05181). Kind of data set: Mechanism based inhibition of human cytochrome P450 2E1.
Sequence of Cytochrome P450 2E1 (P05181 whole entry): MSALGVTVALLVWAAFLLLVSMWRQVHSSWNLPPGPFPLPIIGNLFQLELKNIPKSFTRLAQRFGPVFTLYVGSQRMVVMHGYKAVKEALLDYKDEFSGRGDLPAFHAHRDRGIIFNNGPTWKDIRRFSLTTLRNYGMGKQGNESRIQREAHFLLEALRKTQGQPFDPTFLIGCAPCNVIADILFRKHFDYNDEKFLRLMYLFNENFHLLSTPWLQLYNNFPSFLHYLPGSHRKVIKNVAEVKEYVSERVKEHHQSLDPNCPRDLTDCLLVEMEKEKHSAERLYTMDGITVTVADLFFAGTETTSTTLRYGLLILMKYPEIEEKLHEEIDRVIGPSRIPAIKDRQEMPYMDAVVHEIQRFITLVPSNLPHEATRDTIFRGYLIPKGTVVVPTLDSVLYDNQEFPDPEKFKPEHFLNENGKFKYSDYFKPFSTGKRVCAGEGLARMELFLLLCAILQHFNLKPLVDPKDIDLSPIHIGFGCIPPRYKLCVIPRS

T3 sequence (P08684 whole entry): as the sequence (P08684 whole entry) above

For orientation: kinact means the maximal first-order rate at which the target is inactivated. In turn, `COc1c2c(cc3ccc(=O)oc13)CCO2` displayed a Ki on Cytochrome P450 2A6 of 27 µM. Also, the kinact at CYP2A6 (human, probe coumarin (7-hydroxylation)) was 0.00233 s⁻¹.
`CNCCCC(C#N)(c1ccc(OC)c(OC)c1)C(C)C` (stereo not drawn) showed a Ki at Cytochrome P450 3A4 [1] of 7.93 µM. Further, on CYP3A4 [2] (human), the kinact is 0.00117 s⁻¹.
In the case of `Cc1cc(C)c(SCC[n+]2noc([O-])c2C)c(C)c1`, the mechanism based inhibition result at Cytochrome P450 1A2, on Cytochrome P450 1A1 [3] and on Cytochrome P450 3A4 [1] was “Cytochrome P450 mechanistic inhibitor: PMID 9107543” each time.
Turning to `CC(C)CN(C[C@@H](O)[C@H](Cc1ccccc1)NC(=O)[C@@H](NC(=O)CNCc1cccc(F)c1)C(C)(C)C)S(=O)(=O)c1cccc(N)c1`, the Ki at Cytochrome P450 3A4 [1] amounted to 0.24 µM. The kinact on CYP3A4 [2] (human) is 0.00367 s⁻¹.
In the case of `C#Cc1ccc(NC(C)=O)cc1`, the kinact at CYP1A1 was 0.0015 s⁻¹. On Cytochrome P450 1A1 [4], the Ki was found to be 8.6 µM.
For `CC#CCCCc1ccccc1`, the kinact at CYP1A1 is 0.00833 s⁻¹. The molecule also gave a Ki at Cytochrome P450 1A1 [4] of 0.54 µM.
As for `CC#Cc1ccc2ccccc2c1`, at Cytochrome P450 1A1 [4] (rat), the mechanism based inhibition result was “Cytochrome P450 mechanistic inhibitor: PMID 9074808”.
`C#Cc1ccc2c(ccc3ccccc32)c1`: the kinact on CYP1A1 was 0.0133 s⁻¹. The molecule also returned a Ki at Cytochrome P450 1A1 [4] of 0.25 µM.
On to `C#Cc1ccc2ccc3ccccc3c2c1`, for which the kinact at CYP1A1 is 0.00167 s⁻¹. This molecule also registered a Ki on Cytochrome P450 1A1 [4] of 0.09 µM.
As to `C#Cc1ccc2ccc3cccc4ccc1c2c34`, the kinact at CYP1A1 was 0.00117 s⁻¹. This molecule displayed a Ki on Cytochrome P450 1A1 [4] of 0.02 µM.
In the case of `CCC[C@@H](NC(=O)N1C(=O)C(CC)(CC)[C@@H]1Oc1ccc(C(=O)N2CCN(C)CC2)cc1)c1ccc2c(c1)OCO2`, the mechanism based inhibition entry at Cytochrome P450 3A4 [1] was “Cytochrome P450 mechanistic inhibitor”.
At Cytochrome P450 3A4 [5], `COc1cc(C[C@@H](CO)[C@H](CO)Cc2ccc3c(c2)OCO3)cc(OC)c1OC` displayed a Ki of 0.054 µM. Also, the maximal inactivation rate constant (kinact) at CYP3A4 [6] was 0.00517 s⁻¹.
Molecule `COc1cc(C[C@H]2C(=O)OC[C@@H]2Cc2ccc3c(c2)OCO3)cc(OC)c1OC` registered a Ki at Cytochrome P450 3A4 [5] of 0.177 µM. In addition, the kinact on CYP3A4 [6] was 0.00533 s⁻¹.
`COc1cc(C[C@H]2C(O)OC[C@@H]2Cc2ccc3c(c2)OCO3)cc(OC)c1OC` (stereo partly drawn) registered a Ki on Cytochrome P450 3A4 [5] of 0.082 µM. Moreover, at CYP3A4 [6], the kinact was 0.00422 s⁻¹.
With `COc1cc(CNC(=O)CCCC/C=C/C(C)C)ccc1O` [CAPSAICIN], the mechanism based inhibition result on Cytochrome P450 2E1 is “Cytochrome P450 mechanistic inhibitor: PMID 7746093”.
Take `NNc1nnc(NN)c2ccccc12` [DIHYDRALAZINE]: the kinact on CYP3A4 [2] was 0.000785 s⁻¹.
On Cytochrome P450 3A4 [5], `OC[C@H](Cc1ccc2c(c1)OCO2)[C@H](CO)Cc1ccc2c(c1)OCO2` [DIHYDROCUBEBIN] registered a Ki of 0.142 µM. Moreover, the kinact at CYP3A4 [6] is 0.00375 s⁻¹.
Take `C#C` [ETHYNE]: the mechanism based inhibition entry at Cytochrome P450 1A2 was “Cytochrome P450 mechanistic inhibitor: PMID 9760279”.
On Cytochrome P450 3A4 [5], `O=C1OC[C@H](Cc2ccc3c(c2)OCO3)[C@H]1Cc1ccc2c(c1)OCO2` [HINOKININ] displayed a Ki of 0.373 µM. Moreover, on CYP3A4 [6], the kinact was 0.00525 s⁻¹.
For the molecule `CN1CCC[C@H]1c1cccnc1` [NICOTINE], the kinact on CYP2A6 (probe coumarin) was 1.18 s⁻¹.
On to `Cn1cccc1-c1cccnc1` [NICOTYRINE], for which the kinact at CYP2A6 (probe coumarin) is 0.104 s⁻¹.
On to `Oc1ccc(/C=C/c2cc(O)cc(O)c2)cc1` [RESVERATROL], for which the mechanism based inhibition result is on record as “Cytochrome P450 mechanistic inhibitor: PMID 11259321” on Cytochrome P450 1A1 [3] and “Cytochrome P450 mechanistic inhibitor: PMID 11701226” at Cytochrome P450 3A4 [1].
In turn, `O=c1c2ccccc2nc2n1CCc1c-2[nH]c2ccccc12` [RUTAECARPINE] yielded a Ki on Cytochrome P450 3A4 [5] of 108 µM. For the same molecule, the kinact on CYP3A4 [6] is 0.00645 s⁻¹.
With `C=C[C@]1(C)C[C@@H](OC(=O)CSCCN(CC)CC)[C@]2(C)[C@H](C)CC[C@]3(CCC(=O)[C@H]32)[C@@H](C)[C@@H]1O` [TIAMULIN], at Cytochrome P450 3A4 [1], the mechanism based inhibition result is “Cytochrome P450 mechanistic inhibitor: PMID 7575636”.
`CCCC(CCC)C(=O)O` [VALPROIC ACID] returned a Ki on Cytochrome P450 2A6 of 9150 µM. Besides, on CYP2A6 (human, probe coumarin), the inactivation rate constant (kinact) is 0.0008 s⁻¹.
